Experiment: Stability of natamycin solutions in propylene glycol and aqueous sodium lactate (residual natamycin by HPLC)
Assay type: physicochemical
Conditions: 4-7° C., pH 7.8, natamycin 1% (w/w)
Protocol: Natamycin concentrations were determined using […] as follows. • HPLC system: Waters iClass • Column: Waters Symmetry C18, 4.6×150 mm, 3.5 μm, Part No. WAT200632, Column no. 1483, Lot no. 0198313011 • Column temperature: 25° C. • Eluent A: 50 mM ammonium acetate buffer pH 5.8 (with acetic acid) • Eluent B: Acetonitrile • Wash: 60% acetonitrile/40% water (v/v) • Injection volume: 10 μl • Injector temperature: 10° C. in darkness • Flow: 1 mL/min
The reverse phase HPLC uses a UV detector to determine the residual concentration of natamycin at 303 nm. A set of standard dilutions containing subsequently increasing concentrations of natamycin in methanol was made and from these a calibration curve was obtained. The concentration of natamycin should not exceed a concentration of 88 mg/L. Generally, the dilutions contained 20 mg of sample and […] of methanol.
A […] solution of sodium lactate in water (3 g) was mixed with propylene glycol (16 g) and natamycin (0.2 g) and heated until a final temperature of 105° C. to give a solution with a natamycin concentration of 1% (w/w). […] Samples of the mixtures were analyzed over time by HPLC for residual natamycin concentration. The shelf life test of the mixtures was done by storage at low temperatures (4-7° C.).

C[C@@H]1C/C=C/C=C/C=C/C=C/[C@H](O[C@@H]2O[C@H](C)[C@@H](O)[C@H](N)[C@@H]2O)C[C@@H]2O[C@](O)(C[C@@H](O)C[C@H]3O[C@@H]3/C=C/C(=O)O1)C[C@H](O)[C@H]2C(=O)O [natamycin]
Residual natamycin (%) (day 0): 89%
Residual natamycin (%) (day 1): 88%
Residual natamycin (%) (day 3): 84%
Residual natamycin (%) (day 6): 81%
Residual natamycin (%) (day 10): 84%
Residual natamycin (%) (day 27): 71%
Residual natamycin (%) (day 38): 63%
Residual natamycin (%) (day 45): 62%
Residual natamycin (%) (day 65): 45%

Source: patent US20210227837A1, “NATAMYCIN FOR THE PRESERVATION OF A BAKED PRODUCT” (DSM IP ASSETS B.V., priority 2018, published 2021)
